77 sequences from the supplement of paper PMC11208160 can be followed below.

This data set can be described thus: recombinant barcode read abundance after kanamycin selection (control-corrected) (log10(CPM+1)); higher = more efficient recombination; sequences stand for … in AGTGCAGAGAAAATCGGCCAGTTTTCTCTGCCTGCAGTCCGCATGCCGT…AGATTTATGCAGCGGACTGCCTTTCTCCCAAAGTGATAAACCGGACAGTATCATGGACCGGTTTTCCCGGTAATCCGTATTTGCAAGGTTGGTTTCACT; site = the 11-nt target. A digest of the protocol: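 A promoter, a target, a barcode and the first 104 bridge RNA bases under J23119 made up each oligo. Oligos were Gibson-cloned into a vector bearing the other 73 bp and a T7-inducible recombinase, then co-electroporated into E. coli with a donor plasmid and plated in duplicate on chloramphenicol/ampicillin LB agar (control) or chloramphenicol/ampicillin/kanamycin with 0.1 mM IPTG. Recombination efficiency is the averaged, control-corrected counts per million of recombinant-junction barcodes. Reported values are log10(CPM+1).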
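Also: IS621 recombinase and bridge RNA in Escherichia coli cells.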

Take “TACAAGGCTTGGGTTCTAACCTGTTGCGG (site TACAAGTCTCC)”: the “recombinant barcode read abundance (log10)” value turned out to be 0.292. Take “TACACAGCTTGGGTTCTAACCTGTTGCCT (site TAAACAGCTAG)”: the “recombinant barcode read abundance (log10)” value stood at 0.176. Regarding “TACACAGCTTGGGTTCTAACCTGTTGCCT (site TACACAGCTAG)”, the “recombinant barcode read abundance (log10)” value was 0.909. Then “TACACAGCTTGGGTTCTAACCTGTTGCCT (site TAGACAGCTAG)”, with 0.249; and “TACACAGCTTGGGTTCTAACCTGTTGCCT (site TATACAGCTAG)”, with 0.149. “TACACTACTTGGGTTCTAACCTGTTGCCG (site TACACGACTCC)”: the “recombinant barcode read abundance (log10)” value was 0.0364.

With “TACACTACTTGGGTTCTAACCTGTTGCCG (site TACACTACTCG)”, the “recombinant barcode read abundance (log10)” value stood at 0.177. On to “TACATCCCTTGGGTTCTAACCTGTTGCCA (site TACATCCCTAG)”, for which the “recombinant barcode read abundance (log10)” value is 0.5. Take “TACATCCCTTGGGTTCTAACCTGTTGCCA (site TACATCCCTCG)”: the “recombinant barcode read abundance (log10)” value stood at 0.0234. Then “TACATCCCTTGGGTTCTAACCTGTTGCCA (site TACATCCCTGG)”, with 0.0594.

As for “TACATCCCTTGGGTTCTAACCTGTTGCCA (site TACATCCCTTG)”, the “recombinant barcode read abundance (log10)” value came out at 0.358.

Consider “TACATTCCTTGGGTTCTAACCTGTTGCCT (site AACATTCCTAG)”, for which the “recombinant barcode read abundance (log10)” value was 0.0286.

For “TACATTCCTTGGGTTCTAACCTGTTGCCT (site CACATTCCTAG)”, the “recombinant barcode read abundance (log10)” value is 0.0666. Then “TACATTCCTTGGGTTCTAACCTGTTGCCT (site GACATTCCTAG)”, with 0.179; and “TACATTCCTTGGGTTCTAACCTGTTGCCT (site TACATTCCTAG)”, with 0.156; and “TACCCTACTTGGGTTCTAACCTGTTGCCT (site AACCCTACTAG)”, with 0.0271. Regarding “TACCCTACTTGGGTTCTAACCTGTTGCCT (site CACCCTACTAG)”, the “recombinant barcode read abundance (log10)” value stood at 0.0188. Take “TACCCTACTTGGGTTCTAACCTGTTGCCT (site GACCCTACTAG)”: the “recombinant barcode read abundance (log10)” value stood at 0.0371. With “TACCCTACTTGGGTTCTAACCTGTTGCCT (site TACCCTACTAG)”, the “recombinant barcode read abundance (log10)” value came out at 0.628. Regarding “TACCGGCCTTGGGTTCTAACCTGTTGCCT (site TAACGGCCTAG)”, the “recombinant barcode read abundance (log10)” value stood at 0.288. Then “TACCGGCCTTGGGTTCTAACCTGTTGCCT (site TACCGGCCTAG)”, with 0.141; and “TACCGGCCTTGGGTTCTAACCTGTTGCCT (site TAGCGGCCTAG)”, with 0.176. For “TACCGGCCTTGGGTTCTAACCTGTTGCCT (site TATCGGCCTAG)”, the “recombinant barcode read abundance (log10)” value was found to be 0.166. For the sequence “TACCTAGCTTGGGTTCTAACCTGTTGCGT (site TACCTAGCTAC)”, the “recombinant barcode read abundance (log10)” value was 1.3. With “TACCTAGCTTGGGTTCTAACCTGTTGCGT (site TACCTATCTAC)”, the “recombinant barcode read abundance (log10)” value is 0.433. Then “TACCTATCTTGGGTTCTAACCTGTTGCCT (site TACCTATCTAG)”, with 1.11.

As to “TACCTATCTTGGGTTCTAACCTGTTGCCT (site TCCCTATCTAG)”, the “recombinant barcode read abundance (log10)” value was determined as 0.00692. On to “TACCTATCTTGGGTTCTAACCTGTTGCCT (site TGCCTATCTAG)”, for which the “recombinant barcode read abundance (log10)” value was determined as 0.0136.

As to “TACCTATCTTGGGTTCTAACCTGTTGCCT (site TTCCTATCTAG)”, the “recombinant barcode read abundance (log10)” value amounted to 0.429.

“TACCTGACTTGGGTTCTAACCTGTTGCCT (site TACCAGACTAG)”: the “recombinant barcode read abundance (log10)” value was 0.0067. Then “TACCTGACTTGGGTTCTAACCTGTTGCCT (site TACCCGACTAG)”, with 0.355; and “TACCTGACTTGGGTTCTAACCTGTTGCCT (site TACCGGACTAG)”, with 0.106. Regarding “TACCTGACTTGGGTTCTAACCTGTTGCCT (site TACCTGACTAG)”, the “recombinant barcode read abundance (log10)” value stood at 0.688. Turning to “TACGCCTCTTGGGTTCTAACCTGTTGCCT (site AACGCCTCTAG)”, the “recombinant barcode read abundance (log10)” value was determined as 0.0117. For the sequence “TACGCCTCTTGGGTTCTAACCTGTTGCCT (site CACGCCTCTAG)”, the “recombinant barcode read abundance (log10)” value was 0.164. For “TACGCCTCTTGGGTTCTAACCTGTTGCCT (site GACGCCTCTAG)”, the “recombinant barcode read abundance (log10)” value came out at 0.249. For the sequence “TACGCCTCTTGGGTTCTAACCTGTTGCCT (site TACGCCTCTAG)”, the “recombinant barcode read abundance (log10)” value is 1.29.

As to “TACGTGTCTTGGGTTCTAACCTGTTGCCT (site TAAGTGTCTAG)”, the “recombinant barcode read abundance (log10)” value turned out to be 0.408. With “TACGTGTCTTGGGTTCTAACCTGTTGCCT (site TACGTGTCTAG)”, the “recombinant barcode read abundance (log10)” value came out at 2.4.

For the sequence “TACGTGTCTTGGGTTCTAACCTGTTGCCT (site TAGGTGTCTAG)”, the “recombinant barcode read abundance (log10)” value worked out at 0.0617. With “TACGTGTCTTGGGTTCTAACCTGTTGCCT (site TATGTGTCTAG)” the figure was 0.103; with “TACTAAGCTTGGGTTCTAACCTGTTGCCT (site TACTAAGCTAA)”, 0.

Take “TACTAAGCTTGGGTTCTAACCTGTTGCCT (site TACTAAGCTAC)”: the “recombinant barcode read abundance (log10)” value was 0.098. As to “TACTAAGCTTGGGTTCTAACCTGTTGCCT (site TACTAAGCTAG)”, the “recombinant barcode read abundance (log10)” value was 0.495. With “TACTAAGCTTGGGTTCTAACCTGTTGCCT (site TACTAAGCTAT)” the figure was 0.171. As for “TACTATGCTTGGGTTCTAACCTGTTGCGA (site TACTATGCTTC)”, the “recombinant barcode read abundance (log10)” value stood at 0.41. On to “TACTATGCTTGGGTTCTAACCTGTTGCGA (site TCCTATTCTTC)”, for which the “recombinant barcode read abundance (log10)” value worked out at 0. Regarding “TACTATTCTTGGGTTCTAACCTGTTGCCT (site TACTATACTAG)”, the “recombinant barcode read abundance (log10)” value is 0.0693. Consider “TACTATTCTTGGGTTCTAACCTGTTGCCT (site TACTATCCTAG)”, for which the “recombinant barcode read abundance (log10)” value was 0.0345. With “TACTATTCTTGGGTTCTAACCTGTTGCCT (site TACTATGCTAG)”, the “recombinant barcode read abundance (log10)” value came to 0.175. With “TACTATTCTTGGGTTCTAACCTGTTGCCT (site TACTATTCTAG)”, the “recombinant barcode read abundance (log10)” value worked out at 0.263. For the sequence “TACTGCTCTTGGGTTCTAACCTGTTGCTT (site TACAGCTCTAA)”, the “recombinant barcode read abundance (log10)” value was determined as 0.0305. Turning to “TACTGCTCTTGGGTTCTAACCTGTTGCTT (site TACCGCTCTAA)”, the “recombinant barcode read abundance (log10)” value came to 0.213. Then “TACTGCTCTTGGGTTCTAACCTGTTGCTT (site TACGGCTCTAA)”, with 0.0516; and “TACTGCTCTTGGGTTCTAACCTGTTGCTT (site TACTGCTCTAA)”, with 0.296; and “TACTTAACTTGGGTTCTAACCTGTTGCCT (site TACTAAACTAG)”, with 0.119. For “TACTTAACTTGGGTTCTAACCTGTTGCCT (site TACTCAACTAG)”, the “recombinant barcode read abundance (log10)” value amounted to 0.00663. Regarding “TACTTAACTTGGGTTCTAACCTGTTGCCT (site TACTGAACTAG)”, the “recombinant barcode read abundance (log10)” value was 0.0656.

As for “TACTTAACTTGGGTTCTAACCTGTTGCCT (site TACTTAACTAG)”, the “recombinant barcode read abundance (log10)” value came out at 0.134. For “TACTTCCCTTGGGTTCTAACCTGTTGCGT (site TACTTCCCTAC)”, the “recombinant barcode read abundance (log10)” value is 1.87. With “TACTTCCCTTGGGTTCTAACCTGTTGCGT (site TACTTCTCTAG)”, the “recombinant barcode read abundance (log10)” value was 0.0128. As to “TACTTCTCTTGGGTTCTAACCTGTTGCCT (site TACTTCCCTAC)”, the “recombinant barcode read abundance (log10)” value stood at 0.211.

Turning to “TACTTCTCTTGGGTTCTAACCTGTTGCCT (site TACTTCTCTAG)”, the “recombinant barcode read abundance (log10)” value came to 0.764. Take “TACTTGCCTTGGGTTCTAACCTGTTGCCT (site TAATTGCCTAG)”: the “recombinant barcode read abundance (log10)” value was determined as 0.0842. Take “TACTTGCCTTGGGTTCTAACCTGTTGCCT (site TACTTGCCTAG)”: the “recombinant barcode read abundance (log10)” value was found to be 0.804.

With “TACTTGCCTTGGGTTCTAACCTGTTGCCT (site TAGTTGCCTAG)”, the “recombinant barcode read abundance (log10)” value worked out at 0.653. With “TACTTGCCTTGGGTTCTAACCTGTTGCCT (site TATTTGCCTAG)” the figure was 0.182.

With “TAGAACTCTTGGGTTCTAACCTGTTGCCA (site TAGAACTCTAG)”, the “recombinant barcode read abundance (log10)” value is 0.254.

Consider “TAGAACTCTTGGGTTCTAACCTGTTGCCA (site TAGAACTCTCG)”, for which the “recombinant barcode read abundance (log10)” value came to 0.23.

With “TAGAACTCTTGGGTTCTAACCTGTTGCCA (site TAGAACTCTGG)”, the “recombinant barcode read abundance (log10)” value came to 0.0926.

As for “TAGAACTCTTGGGTTCTAACCTGTTGCCA (site TAGAACTCTTG)”, the “recombinant barcode read abundance (log10)” value came out at 0.193. In the case of “TAGAAGACTTGGGTTCTAACCTGTTGCTA (site TAGAAGACTAA)”, the “recombinant barcode read abundance (log10)” value worked out at 0.115. As to “TAGAAGACTTGGGTTCTAACCTGTTGCTA (site TAGAAGACTCA)”, the “recombinant barcode read abundance (log10)” value was 0.487. Turning to “TAGAAGACTTGGGTTCTAACCTGTTGCTA (site TAGAAGACTGA)”, the “recombinant barcode read abundance (log10)” value was determined as 0.155.

Consider “TAGAAGACTTGGGTTCTAACCTGTTGCTA (site TAGAAGACTTA)”, for which the “recombinant barcode read abundance (log10)” value amounted to 1.55. Turning to “TAGAAGACTTGGGTTCTAACCTGTTGCTG (site TAGAAGACTAA)”, the “recombinant barcode read abundance (log10)” value was found to be 0.128.

Take “TAGAAGACTTGGGTTCTAACCTGTTGCTG (site TAGAAGACTCA)”: the “recombinant barcode read abundance (log10)” value worked out at 2.38.
